Usually solubility stands for how much of the substance goes into solution per volume.

A value given as a limit tells only on which side of the number the result lay.

A short description of this series: Solubility of chiral amide in IPA. The class given is physicochemical. The settings on record: organic solvent or mixture; in IPA (isopropyl alcohol); grams of chiral amide per liter of solvent; concentration up to 45° C. under vacuum. The protocol:
After the hydrogenation was complete (Example 8), 64.9 g of solution was concentrated to 16.9 g up to 45° C. under vacuum. […] MTBE (348.2 g) was added, and the solution was washed with 250 mL of 10% NH4Cl solution. The organic solution was then washed an additional 3 times with water (248 mL for each wash). The residual organic solution was concentrated with MTBE (284.4 g) to azeotrope the water. The solution was concentrated to 53±5 g/kg. The final water concentration was 532 ppm. This solution was then seeded with chiral amide MTBE hemisolvate, 0.5 wt. %, and aged for 20 hours at 20-25° C. At this point, heptane was charge in three aliquots over specific periods of time. The first aliquot of heptane (54 mL), was charged in 9 hours. The second aliquot of heptane (90 mL) was charged in 6 hours. The third aliquot of heptane (294 mL) was charged in 3 hours. At the conclusion of the heptane charge, the solution was aged at 20-25° C. for 2 hours. The solution was filtered over a 5 micron fritted filter. A displacement wash was conducted using 164 mL of 5:1 n-heptane/MTBE, and the solids were dried at less than 45° C. under vacuum. The final water concentration was <0.5 wt. % (by KF). The final MTBE concentration was 11-12 wt. % (as a hemisolvate) and the final heptane concentration was <0.5 wt. % (both by GC). The chiral amide/MTBE hemisolvate was isolated in 90% yield, 99.3 LCAP.

On to `C[C@H](NC(=O)C(C)(C)Oc1ccc(C(F)(F)F)cn1)[C@@H](Cc1ccc(Cl)cc1)c1cccc(C(N)=O)c1` [chiral amide, 3-{(1S,2S)-1-(4-chlorobenzyl)-2-[(2-methyl-2-{[5-(trifluoromethyl)pyridine-2-yl]oxy}propanoyl)amino]-propyl}benzamide], for which the solubility was more than 1350 mg/mL.

Source of the values: patent US7629470B2, “Formation of tetra-substituted enamides and stereoselective reduction thereof” (Merck & Co., Inc., priority 2004, dated 2009).
